pEC50, pIC50: −log10 of the molar value. Where two headings read alike, the source gives them in different places.

By pEC50 is commonly meant the negative decadic logarithm of the EC50, by convention in mol/L. In general, pIC50 refers to the negative decadic logarithm of the IC50, by convention in mol/L.

One test has as its system GABAA receptor. As to the kind of experiment: GABAA receptor mediated chloride currents evoked on cultured neurones. It counts as cell-based.
The subject of test [1] is K-ATP channels in DA neurones. As to the kind of experiment: K-ATP channel mediated response of DA neurones to mitochondrial inhibitors. Conditions: read-out: EC50 of K-ATP channel sensitivity. It counts as cell-based, mouse.
The test system of test [2] is Ih channels in DA SN neurones. As to the kind of experiment: Pacemaker frequency of DA SN neurones under selective Ih inhibition. It counts as cell-based. Particulars: 30 μM ZD7288.
Test [3] deals with SK mediated AHP currents (I-AHP) in dopaminergic neurons. Nature of the test: cells. It counts as cell-based, mouse. Particulars: for pIC50: read-out: IC50 of I-AHP inhibition (Hill function).
A further test has as its system globus pallidus neurones. Nature of the test: Electrical activity of globus pallidus neurones in brain slices. The format is cell-based, mouse.
The subject of test [4] is T-type calcium channels (low voltage-activated calcium currents). The format is cell-based, mouse. Conditions: read-out: IC50 of I-LVA inhibition (Hill function).
Test [5] concerns dopaminergic midbrain neurons. The format is cell-based, mouse.
Test [6] has as its system dopaminergic neurons.
In test [7] the test system is dopaminergic neurons. The format is cell-based, mouse.

`[H]/N=C(/N)NCC(=O)O` [GAA, guanidinoacetate] showed a pEC50 with GABAA receptor of 3.79.
Take `C[n+]1ccc(-c2ccccc2)cc1` [MPP^+]: the pEC50 in test [1] (MPP+) is roughly 5.70.
`CCN(c1ccccc1)c1cc(=NC)n(C)c(C)n1.Cl` [ZD7288]: in test [2], the “decrease of pacemaker frequency” value is on record as “about 50%”.
For `[Co+2]` [cobalt], in test [3] (1 mM cobalt, n=29), the “I-AHP residual current (cobalt block)” value worked out at 29±4%.
Consider `CN(CC(=O)O)C(=N)N` [creatine], for which, in the test with globus pallidus neurones (millimolar concentrations), the “effect on neuronal activity” value is given as “no effect”.
Take `COCC(=O)O[C@]1(CCN(C)CCCc2nc3ccccc3[nH]2)CCc2cc(F)ccc2[C@@H]1C(C)C` [mibefradil, Mibefradil]: the pIC50 in [3] (Mus musculus, Neuron, mean dose-response, recording potential −60 mV) is 5.23; in test [4] (depolarizations to −50 mV from holding potential −100 mV), 5.34. Further, the “inhibition of cobalt-sensitive I-AHP” value in test [3] (mibefradil, concentration not given, normalized to mean value of cobalt block, n=6) stood at 94±10%.
Consider `[Ni+2]` [nickel], for which, in [3], the “inhibition of cobalt-sensitive I-AHP” value stood at 85±9% and the pIC50 was 4.47. In addition, the “bursting value (action potentials in bursts / total)” value in test [5] stood at 12±6%. For the same compound, the pIC50 in test [4] is 4.47. The “fold reduction of AHPs with successive action potentials (cumulative inactivation)” value with dopaminergic neurons [6] is on record as 1.1±0.1. Besides, in the test with dopaminergic neurons [7], the “coefficient of variation (CV) of interspike intervals, representative recording” value stood at 38% and the “mean CV of interspike intervals” value was 27±5%.
For `C=C(C)[C@H]1Cc2c(ccc3c2O[C@@H]2COc4cc(OC)c(OC)cc4[C@@H]2C3=O)O1` [rotenone], the pEC50 in test [1] (rotenone) was roughly 7.82.
For the compound picrotoxin, the “effect on GAA-induced effects” value in the test with globus pallidus neurones (GABAA receptor antagonists) is given as “blocked”.
